Assay results: patent US12410160B2 (Gilead Sciences, Inc., priority 2021, dated 2025)
Read-outs that look alike come from different tables or passages of the source.

What was measured:
human KHK-A = human KHK-A (Homo sapiens (Human), UniProt P50053); assay: KHK Biochemical Assay (IC50), ADP-Glo, KHK-A; conditions: average of at least two separate assays
How it was run: (§1)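 His-tagged enzyme expressed in BL21 (DE3), Ni-NTA purified. Compounds, serially diluted 1:3 in DMSO, pre-incubated 30 min with enzyme in 50 mM Hepes pH 7.4, 140 mM KCl, 5 mM MgCl2, 0.01% Triton-X, then ATP and fructose added; 4 h at room temperature. ADP formation read by ADP-Glo luminescence.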

human KHK-C = human KHK-C (Homo sapiens (Human), UniProt P50053); assay: KHK Biochemical Assay (IC50), ADP-Glo, KHK-C; conditions: average of at least two separate assays
Sequence of human KHK-C (P50053 whole entry): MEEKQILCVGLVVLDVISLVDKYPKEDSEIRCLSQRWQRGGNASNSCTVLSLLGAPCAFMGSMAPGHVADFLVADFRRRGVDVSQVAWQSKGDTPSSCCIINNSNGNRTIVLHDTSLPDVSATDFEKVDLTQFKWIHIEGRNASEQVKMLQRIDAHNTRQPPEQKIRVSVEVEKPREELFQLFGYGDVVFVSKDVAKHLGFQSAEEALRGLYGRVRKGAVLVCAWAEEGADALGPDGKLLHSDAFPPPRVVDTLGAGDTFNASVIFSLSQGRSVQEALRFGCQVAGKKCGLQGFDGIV
How it was run: as §1

human OATP1B1 [1] = molecular target: T1, human OATP1B1 (Homo sapiens (Human), UniProt Q9Y6L6); assay: In Vitro Inhibition Assessment with Human OATP1B1 Transporter; type: in vitro ADME; conditions: HEK293-OATP1B1 cells, probe substrate pravastatin
T1 sequence (Q9Y6L6 whole entry): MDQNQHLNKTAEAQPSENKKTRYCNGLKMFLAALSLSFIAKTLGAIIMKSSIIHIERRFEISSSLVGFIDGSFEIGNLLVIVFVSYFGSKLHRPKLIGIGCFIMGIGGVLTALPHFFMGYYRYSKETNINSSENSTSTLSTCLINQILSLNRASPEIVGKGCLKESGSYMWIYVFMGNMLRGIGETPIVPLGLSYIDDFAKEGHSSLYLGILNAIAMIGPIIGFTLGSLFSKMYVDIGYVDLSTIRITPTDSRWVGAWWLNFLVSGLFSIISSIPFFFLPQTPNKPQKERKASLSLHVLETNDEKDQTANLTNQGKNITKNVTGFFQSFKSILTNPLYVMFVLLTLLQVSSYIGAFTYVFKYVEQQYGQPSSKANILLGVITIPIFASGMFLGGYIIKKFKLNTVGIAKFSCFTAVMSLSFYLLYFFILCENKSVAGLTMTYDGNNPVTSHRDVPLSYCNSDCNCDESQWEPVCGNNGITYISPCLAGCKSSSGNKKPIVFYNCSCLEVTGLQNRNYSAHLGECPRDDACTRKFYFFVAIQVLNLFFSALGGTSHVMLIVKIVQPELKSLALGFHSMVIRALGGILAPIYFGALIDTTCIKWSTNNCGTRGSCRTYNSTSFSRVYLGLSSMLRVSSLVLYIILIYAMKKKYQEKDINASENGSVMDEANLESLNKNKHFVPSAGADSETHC
How it was run: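 Pravastatin uptake was measured by LC-MS/MS after a 5 min exposure with inhibitor, following a 15 min inhibitor preincubation, in transfected versus mock HEK293 cells. Transport activity was derived as (transfected − mock) with compound over the same difference with solvent. IC50 is the concentration halving maximal activity; final DMSO was 0.4%.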

[2] = molecular target: KHK-C expressed in NRK-52E cells (Homo sapiens (Human), UniProt P50053); assay: KHK-C Cell-based Assay (EC50), NRK CTG, fructose-mediated ATP-depletion
Sequence of KHK-C expressed in NRK-52E cells (P50053 whole entry): as the sequence (P50053 whole entry) above

[3] = pKa analysis by capillary electrophoresis (pKa PRO Analyzer, co-solvent method); type: physicochemical; conditions: methanol/aqueous co-solvent buffers, co-solvent method (60% to 30% methanol buffers)
Method: The 10 mM DMSO stock solutions of test articles (TAs) were diluted 100-fold with either 2 mM HCl or 2 mM NaOH and methanol. The final concentration of methanol was 60%, TA concentration was 100 μM, and DMSO concentration was 1%. The TAs were transferred into 24 consecutive wells of a 96-well plate for analysis using the co-solvent method. […] All data was obtained using a pKa. PRO Analyzer (AATI, Ankey, IA) by performing four consecutive CE runs from 60% to 30% co-solvent buffers. Norfloxacin was used as a daily performance-indicating standard. The pKa values were predicted by using pKa. Estimator® software (AATI, Ankey, IA) by relating molecular weight of the TA to its mobility.

HepG2 cells = assay: F1P Cell-Based Assay (EC50), 13C6-fructose-1-phosphate in HepG2 cells (cell culture medium or 50% human plasma); conditions: Homo sapiens
human OATP1B1 [4] = molecular target: T1, human OATP1B1; assay: In Vitro Substrate Assessment with Human OATP1B1 Transporter; type: in vitro ADME; conditions: HEK293-OATP1B1 vs mock cells; substrate if uptake ≥2-fold of mock and decreased by ≥30% with known OATP inhibitor
Description: In Vitro Substrate Assessment with Human OATP1B1 and OATP1B3 Transporters
The purpose of this assay was to assess whether test articles (TAs), were substrates for the hepatic uptake transporters organic anion transporting polypeptide (OATP) 1B1 (SLCO1B1) and 1B3 (SLCO1B3) using non-transfected (Mock) and transfected human embryonic kidney (HEK293) cells. […] On assay day, media were removed from the assay plates and cells were washed with Hanks' Balanced Salt Solution (HBSS Buffer) (Corning, Cat. #21-023-CV). Cells were preincubated with HBSS buffer with or without known OATP inhibitors for 30 minutes. […] The incubation period was 2 minutes. Cells were then washed three times with ice cold HBSS buffer and then were immediately extracted with methanol:water (70:30 v:v) containing internal standard labetolol (30 nM). The supernatants were evaporated to dryness on injection plates and reconstituted in 80% water containing 20% acetonitrile and 0.1% formic acid for analysis by liquid chromatography with tandem mass spectrometry (LC-MS-MS).
The rate of uptake into cells was determined by the following formula: Rate of uptake=(A*B)/(C*D)
• A: concentration of compound in cell lysate • B: volume of sample • C: Incubation time • D: millions of cells in sample
A TA was considered a substrate for OATP transporter if: (1) the rate of uptake in the transporter transfected cells was ≥2-fold of the rate of uptake in the mock cells; and (2) the rate of uptake in the transporter transfected cells was decreased by ≥30% in the presence of a known OATP inhibitor.

[5] = pH range 1.7-11.2, read-out: 1st pKa
[6] = HepG2, HepG2 cells, 50% human plasma, read-out: F1P 50% HP EC50
[7] = HepG2, read-out: F1P 10% FBS EC50, HepG2 cells, cell culture medium (10% FBS)
[8] = pH range 1.7-11.2, read-out: 2nd pKa

Sequence of human KHK-A (P50053 other isoform, or with tags, fused parts or gaps): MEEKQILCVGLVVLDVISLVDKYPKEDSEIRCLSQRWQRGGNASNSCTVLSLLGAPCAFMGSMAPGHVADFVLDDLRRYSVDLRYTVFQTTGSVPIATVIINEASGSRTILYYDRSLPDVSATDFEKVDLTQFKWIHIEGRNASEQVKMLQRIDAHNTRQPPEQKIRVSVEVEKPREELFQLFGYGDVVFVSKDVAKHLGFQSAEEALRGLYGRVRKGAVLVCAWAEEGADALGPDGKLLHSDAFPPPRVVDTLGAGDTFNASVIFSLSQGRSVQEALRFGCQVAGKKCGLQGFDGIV

Row | SMILES | IC50 (human KHK-A) | IC50 (human KHK-C) | IC50 (human OATP1B1 [1]) | EC50 [2] | pKa [3, 5] | EC50 (HepG2 cells; [6]) | EC50 (HepG2 cells; [7]) | EC50 (HepG2 cells; HepG2, read-out: F1P 10% FBS EC50) | EC50 (HepG2 cells; HepG2, read-out: F1P 50% HP EC50) | IC50 (human KHK-A; ADP-Glo) | IC50 (human KHK-C; ADP-Glo) | pKa [3, 8] | OATP1B1 Substrate (human OATP1B1 [4])
1 | C[C@H]1[C@H](O)CN1c1nc(-c2cccc([S@@](C)(=N)=O)c2)c2c(n1)C(F)(F)CC2 (single isomer, unassigned) [Example 492] | 12.2 nM | 9 nM | 31700 nM | 41.8 nM | 2.1 | 22.2 nM | 20.7 nM | – | – | – | – | – | –
2 | COc1ccc(-c2nc(N3C[C@@H](O)[C@@H]3C)nc3c2CCC3(F)F)cc1[S@@](C)(=N)=O (single isomer, unassigned) [Example 495] | 0.7 nM | 1.5 nM | > 40000 nM | 16 nM | 2.5 | 2.3 nM | 1.1 nM | – | – | – | – | – | –
3 | NC1(c2ccc(-c3nc(N4CC[C@@H]4C(F)F)nc4c3CCC4(F)F)cc2)COC1 (single isomer, unassigned) [Example 687] | 2.8 nM | 1.2 nM | 6550 nM | 6.2 nM | 6 | – | – | 7.6 nM | 14.6 nM | – | – | – | –
4 | C[C@H]1CCN1c1nc2c(c(-c3cccc(C(N)=O)c3)n1)CCC2 [Example 8, (S)-3-(2-(2-methylazetidin-1-yl)-6,7-dihydro-5H-cyclopenta[d]pyrimidin-4-yl)benzamide] | – | – | 1320 nM | 128 nM | 4.38 | – | – | – | – | 38.8 nM | 48.1 nM | – | –
5 | C[C@H]1CCN1c1nc2c(c(-c3ccc(CN)cc3)n1)CCC2 [Example 188, [4-[2-[(2S)-2-methylazetidin-1-yl]-6,7-dihydro-5H-cyclopenta[d]pyrimidin-4-yl]phenyl]methanamine] | – | – | 10200 nM | 177 nM | 4.27 | – | – | – | – | 4.2 nM | 2.1 nM | 9.27 | –
6 | C[C@H]1CCN1c1nc2c(c(-c3ccc4c(=O)[nH]ccc4c3)n1)CCC2 [Example 364, 6-[2-[(2S)-2-methylazetidin-1-yl]-6,7-dihydro-5H-cyclopenta[d]pyrimidin-4-yl]-2H-isoquinolin-1-one] | – | – | 38.9 nM | 13.1 nM | 4.32 | – | – | – | – | 10 nM | 3.3 nM | – | –
7 | C[C@H]1CCN1c1nc2c(c(-c3ccc4c(N)nccc4c3)n1)CCC2 [Example 378, 6-[2-[(2S)-2-methylazetidin-1-yl]-6,7-dihydro-5H-cyclopenta[d]pyrimidin-4-yl]isoquinolin-1-amine] | – | – | 1690 nM | 7.7 nM | 3.29 | – | – | – | – | 3.4 nM | 1 nM | 6.64 | –
8 | C[C@H]1CCN1c1nc2c(c(-c3ccc(CN)s3)n1)CCC2 [Example 459, [5-[2-[(2S)-2-methylazetidin-1-yl]-6,7-dihydro-5H-cyclopenta[d]pyrimidin-4-yl]-2-thienyl]methanamine] | 11.1 nM | 6.6 nM | 13200 nM | 42.1 nM | 4.27 | – | – | – | – | – | – | 8.65 | –
9 | C[C@H]1[C@H](O)CN1c1nc(-c2ccc3c(c2)OC[C@@H]3NS(C)(=O)=O)c2c(n1)C(F)(F)CC2 [Example 466, N—((R)-6-(7,7-difluoro-2-((2S,3R)-3-hydroxy-2-methylazetidin-1-yl)-6,7-dihydro-5H-cyclopenta[d]pyrimidin-4-yl)-2,3-dihydrobenzofuran-3-yl)methanesulfonamide] | 4 nM | 0.5 nM | 3010 nM | 11.4 nM | 10.3 | 20.5 nM | 7.3 nM | – | – | – | – | – | –
10 | NC1(c2ccc(-c3nc(N4CC[C@@H]4CF)nc4c3CCC4(F)F)cc2)COC1 [Example 471, (R)-3-(4-(7,7-difluoro-2-(2-(fluoromethyl)azetidin-1-yl)-6,7-dihydro-5H-cyclopenta[d]pyrimidin-4-yl)phenyl)oxetan-3-amine] | 7 nM | 2 nM | 23300 nM | 6.4 nM | 6.1 | 13.2 nM | 8.4 nM | – | – | – | – | – | –
11 | C[C@H]1[C@H](O)CN1c1nc(-c2ccc(C3(N)CS(=O)(=O)C3)cc2)c2c(n1)C(F)(F)CC2 [Example 491] | 24.2 nM | 2 nM | 36000 nM | 35.8 nM | 4.5 | 26.2 nM | 31.9 nM | – | – | – | – | – | –
12 | C[C@H]1[C@H](O)CN1c1nc(-c2ccc(C3(N)CC(F)(F)C3)cc2)c2c(n1)C(F)(F)CC2 [Example 646, (2S,3R)-1-[4-[4-(1-amino-3,3-difluoro-cyclobutyl)phenyl]-7,7-difluoro-5,6-dihydrocyclopenta[d]pyrimidin-2-yl]-2-methyl-azetidin-3-ol] | – | 2.7 nM | 5010 nM | 7.4 nM | 6.6 | 22.4 nM | 14.3 nM | – | – | – | – | – | –
13 | NC1(c2ccc(-c3nc(N4CC[C@@H]4C(F)(F)F)nc4c3CCC4(F)F)cc2)COC1 [Example 696, 3-[4-[7,7-difluoro-2-[(2R)-2-(trifluoromethyl)azetidin-1-yl]-5,6-dihydrocyclopenta[d]pyrimidin-4-yl]phenyl]oxetan-3-amine] | 1 nM | 0.5 nM | 5410 nM | 5.7 nM | 6.3 | 6.8 nM | 1.7 nM | – | – | – | – | – | –
14 | N#C[C@H]1CCN1c1nc(-c2ccc(C3(N)COC3)cc2)c2c(n1)C(F)(F)CC2 [Example 711, (R)-1-(4-(4-(3-aminooxetan-3-yl)phenyl)-7,7-difluoro-6,7-dihydro-5H-cyclopenta[d]pyrimidin-2-yl)azetidine-2-carbonitrile] | – | 6.1 nM | 12800 nM | 35.2 nM | 6.3 | 33.7 nM | 28.2 nM | – | – | – | – | – | –
15 | COc1ccc(-c2nc(N3C[C@@H](O)[C@@H]3C)nc3c2CCC3(F)F)cc1S(N)(=O)=O [Example 763, 5-(7,7-difluoro-2-((2S,3R)-3-hydroxy-2-methylazetidin-1-yl)-6,7-dihydro-5H-cyclopenta[d]pyrimidin-4-yl)-2-methoxybenzenesulfonamide] | 3.6 nM | 3 nM | 2570 nM | – | 1.7 | 8 nM | 6.9 nM | – | – | – | – | – | –
16 | C[C@H]1CCN1c1nc(N2C[C@@H]3[C@@H](CC(=O)O)[C@@H]3C2)cc(C(F)(F)F)n1 [Reference Compound 1, reference compound] | – | – | 1190 nM | – | – | – | – | – | – | – | – | – | YES
17 | C[C@H]1CCN1c1nc(N2CC[C@H](CC(=O)O)C2)cc(C(F)(F)F)c1C#N [Reference Compound 2, 2-((R)-1-(5-cyano-6-((S)-2-methylazetidin-1-yl)-4-(trifluoromethyl)pyridin-2-yl)pyrrolidin-3-yl)acetic acid, reference compound] | – | – | 267 nM | – | – | – | – | – | – | – | – | – | YES
18 | C[C@H]1CCN1c1nc(N2C[C@@H]3[C@@H](CC(=O)O)[C@@H]3C2)c2c(n1)C(F)(F)CC2 [Reference Compound 5, reference compound] | – | – | 720 nM | – | – | – | – | – | – | – | – | – | YES
19 | C[C@H]1CCN1c1nc(N2C[C@@H]3[C@@H](CC(=O)O)[C@@H]3C2)c2c(n1)C(F)(F)CCC2 [Reference Compound 6, reference compound] | – | – | 960 nM | – | – | – | – | – | – | – | – | – | YES
